Experimental data taken from PubChem BioAssay (NCI).
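Dose response: 5 concentrations. Exposure: 48 h. Format: 96-well plates. Endpoint: linear interpolation; highest concentration if not reached. Here, GI50 denotes the concentration required for 50% inhibition of growth. TGI: concentration producing complete growth inhibition.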

Key:
Test in all cases: NCI tumour cell line growth inhibition, 48 h
[1] = system: 786-0 renal
[2] = system: A498 renal
[3] = system: A549 NSCLC
[4] = system: ACHN renal
[5] = system: CAKI-1 renal
[6] = system: CCRF-CEM leukemia
[7] = system: COLO 205 colon
[8] = system: DU-145 prostate
[9] = system: EKVX NSCLC
[10] = system: HCC-2998 colon
[11] = system: HCT-116 colon
[12] = system: HCT-15 colon
[13] = system: HL-60(TB) leukemia
[14] = system: HOP-62 NSCLC
[15] = system: HS 578T breast
[16] = system: HT29 colon
[17] = system: IGROV1 ovarian
[18] = system: K-562 leukemia
[19] = system: KM12 colon
[20] = system: LOX IMVI melanoma
[21] = system: M14 melanoma
[22] = system: MALME-3M melanoma
[23] = system: MCF7 breast
[24] = system: MDA-MB-231 breast
[25] = system: MDA-MB-435
[26] = system: MOLT-4 leukemia
[27] = system: NCI-H226 lung
[28] = system: NCI-H23 lung
[29] = system: NCI-H460 lung
[30] = system: NCI/ADR-RES ovarian
[31] = system: OVCAR-4 ovarian
[32] = system: OVCAR-5 ovarian
[33] = system: OVCAR-8 ovarian
[34] = system: PC-3 prostate
[35] = system: RPMI-8226 leukemia
[36] = system: SF-268 CNS
[37] = system: SF-539 CNS
[38] = system: SK-MEL-2 melanoma
[39] = system: SK-MEL-28 melanoma
[40] = system: SK-MEL-5 melanoma
[41] = system: SK-OV-3 ovarian
[42] = system: SN12C renal
[43] = system: SNB-19 CNS
[44] = system: SNB-75 CNS
[45] = system: SR leukemia
[46] = system: SW-620 colon
[47] = system: T-47D breast
[48] = system: TK-10 renal
[49] = system: U251 CNS
[50] = system: UACC-257 melanoma
[51] = system: UACC-62 melanoma
[52] = system: UO-31 renal
[53] = system: NCI-H522 lung
[54] = system: OVCAR-3 ovarian
[55] = system: RXF 393 renal
[56] = system: SF-295 CNS
[57] = system: BT-549 breast
[58] = system: HOP-92 NSCLC

## O=C(CC(C(=O)c1cccs1)c1ccsc1)c1ccc(Cl)s1 (stereo not drawn)
[1]
  TGI: > 100 µM
[2]
  TGI: > 100 µM
[3]
  TGI: > 100 µM
[4]
  TGI: > 100 µM
[5]
  TGI: > 100 µM
[6]
  TGI: > 100 µM
[7]
  TGI: > 100 µM
[8]
  TGI: > 100 µM
[9]
  TGI: > 100 µM
[10]
  TGI: > 100 µM
[11]
  TGI: > 100 µM
[12]
  TGI: > 100 µM
[13]
  TGI: > 100 µM
[14]
  TGI: > 100 µM
[15]
  TGI: > 100 µM
[16]
  TGI: > 100 µM
[17]
  TGI: > 100 µM
[18]
  TGI: > 100 µM
[19]
  TGI: > 100 µM
[20]
  TGI: > 100 µM
[21]
  TGI: > 100 µM
[22]
  TGI: > 100 µM
[23]
  TGI: > 100 µM
[24]
  TGI: > 100 µM
[25]
  TGI: > 100 µM
[26]
  TGI: > 100 µM
[27]
  TGI: > 100 µM
[28]
  TGI: > 100 µM
[29]
  TGI: > 100 µM
[30]
  TGI: > 100 µM
[31]
  TGI: > 100 µM
[32]
  TGI: > 100 µM
[33]
  TGI: > 100 µM
[34]
  TGI: > 100 µM
[35]
  TGI: > 100 µM
[36]
  TGI: > 100 µM
[37]
  TGI: > 100 µM
[38]
  TGI: > 100 µM
[39]
  TGI: > 100 µM
[40]
  TGI: > 100 µM
[41]
  TGI: > 100 µM
[42]
  TGI: > 100 µM
[43]
  TGI: > 100 µM
[44]
  TGI: > 100 µM
[45]
  TGI: > 100 µM
[46]
  TGI: > 100 µM
[47]
  TGI: > 100 µM
[48]
  TGI: > 100 µM
[49]
  TGI: > 100 µM
[50]
  TGI: > 100 µM
[51]
  TGI: > 100 µM
[52]
  TGI: > 100 µM

## COc1ccc2cc1Oc1ccc(cc1)C[C@@H]1c3cc(c(OC)cc3CCN1C)Oc1c(OC)c(OC)cc3c1[C@H](C2)N(C)CC3
[1]
  TGI: 89.6 µM
[2]
  TGI: 42.5 µM
[4]
  TGI: 28.5 µM
[6]
  TGI: 51.8 µM
[10]
  TGI: 25.8 µM
[11]
  TGI: > 100 µM
[12]
  TGI: 25.1 µM
[13]
  TGI: 30.8 µM
[15]
  TGI: 42.3 µM
[17]
  TGI: 72.9 µM
[18]
  TGI: 23 µM
[21]
  TGI: 37.1 µM
[23]
  TGI: 31 µM
[24]
  TGI: 29.9 µM
[28]
  TGI: 34.1 µM
[29]
  TGI: 29.7 µM
[53]
  TGI: 33.4 µM
[54]
  TGI: > 100 µM
[31]
  TGI: 55.6 µM
[33]
  TGI: 35.6 µM
[55]
  TGI: 13.7 µM
[36]
  TGI: 60.8 µM
[56]
  TGI: 34.2 µM
[37]
  TGI: 23.6 µM
[40]
  TGI: 25.1 µM
[41]
  TGI: > 100 µM
[43]
  TGI: 50 µM
[44]
  TGI: 27.3 µM
[45]
  TGI: 9.91 µM
[48]
  TGI: 39.5 µM
[49]
  TGI: > 100 µM
[50]
  TGI: 28.9 µM

## O=C(NCCNCCO)c1ccc(Nc2nc3ccccc3c3occc23)cc1
[1]
  GI50: 13.7 µM
  TGI: 27.5 µM
[2]
  GI50: 18.3 µM
  TGI: 39.4 µM
[3]
  GI50: 15.3 µM
  TGI: 30.1 µM
[4]
  GI50: 14.2 µM
  TGI: 27.3 µM
[57]
  GI50: 11.5 µM
  TGI: 34.2 µM
[5]
  GI50: 17.3 µM
  TGI: 33.1 µM
[6]
  GI50: 3.05 µM
  TGI: 14.3 µM
[7]
  GI50: 29.1 µM
  TGI: > 100 µM
[8]
  GI50: 14.9 µM
  TGI: 30.7 µM
[9]
  GI50: 13.9 µM
  TGI: 32 µM
[10]
  GI50: 2.14 µM
  TGI: 5.27 µM
[11]
  GI50: 10.1 µM
  TGI: 23.3 µM
[12]
  GI50: 16.7 µM
  TGI: 31.2 µM
[14]
  GI50: 12.2 µM
  TGI: 24.9 µM
[58]
  GI50: 3.01 µM
  TGI: 18.4 µM
[15]
  GI50: 16.1 µM
  TGI: 36.7 µM
[16]
  GI50: 29.3 µM
  TGI: > 100 µM
[17]
  GI50: 6.71 µM
  TGI: 25.1 µM
[18]
  GI50: 3.37 µM
  TGI: 6.71 µM
[19]
  GI50: 8.99 µM
  TGI: 23.8 µM
[20]
  GI50: 8.45 µM
  TGI: 22.2 µM
[21]
  GI50: 14.9 µM
  TGI: 30.4 µM
[23]
  GI50: 28 µM
  TGI: > 100 µM
[24]
  GI50: 3.12 µM
  TGI: 16.2 µM
[25]
  GI50: 7.29 µM
  TGI: 22 µM
[26]
  GI50: 4.77 µM
  TGI: 15.1 µM
[28]
  GI50: 12.8 µM
  TGI: 26.4 µM
[29]
  GI50: 28.5 µM
  TGI: > 100 µM
[53]
  GI50: 14.3 µM
  TGI: 35.4 µM
[30]
  GI50: 24.9 µM
  TGI: 61.8 µM
[54]
  GI50: 6.22 µM
  TGI: 22.8 µM
[31]
  GI50: 24 µM
  TGI: > 100 µM
[32]
  GI50: 10.9 µM
  TGI: 23.2 µM
[33]
  GI50: 2.61 µM
  TGI: 16.2 µM
[34]
  GI50: 4.15 µM
  TGI: 18.3 µM
[35]
  GI50: 18.3 µM
  TGI: 37.5 µM
[36]
  GI50: > 100 µM
  TGI: > 100 µM
[56]
  GI50: 14.1 µM
  TGI: 29.8 µM
[37]
  GI50: 12.6 µM
  TGI: 29.4 µM
[38]
  GI50: 20.5 µM
  TGI: 60.3 µM
[39]
  GI50: 23.7 µM
  TGI: 58.4 µM
[40]
  GI50: 18.4 µM
  TGI: 35.2 µM
[41]
  GI50: 15.4 µM
  TGI: 36.5 µM
[42]
  GI50: 11.9 µM
  TGI: 24.6 µM
[43]
  GI50: 18.5 µM
  TGI: 49.5 µM
[44]
  GI50: 9.26 µM
  TGI: 27.2 µM
[46]
  GI50: 21.1 µM
  TGI: 43.1 µM
[47]
  GI50: 25.8 µM
  TGI: 90.2 µM
[48]
  GI50: 2.11 µM
  TGI: 6.67 µM
[49]
  GI50: 11.2 µM
  TGI: 23.8 µM
[51]
  GI50: 16.6 µM
  TGI: 30.8 µM
[52]
  GI50: 18.5 µM
  TGI: 44.9 µM
